Results taken from ChEMBL document CHEMBL1201862, “PubChem BioAssay data set” (2004).
Blank lines part the entries; values can stand above or below the molecule they belong to. Activity calls are given as the source filed them.

Columns and labels:
Type in all cases: functional
[1] = molecular target: T1, Orexin/Hypocretin receptor type 1 (Homo sapiens, UniProt O43613); test: (§1) Fluorescence-based cell-based high throughput dose response assay for antagonists of the orexin 1 receptor (OX1R; HCRTR1). [Related pubchem assays (depositor defined):AID434989, AID435008, AID463079, AID485270, AID492963, AID492964, AID492965, AID493232, AID504717, AID504718]
[2] = (§2) Counterscreen for antagonists of the orexin 1 receptor (OX1R; HCRTR1): Fluorescence-based cell-based high throughput dose response assay to identify antagonists of the parental CHO cell line. [Related pubchem assays (depositor defined):AID434989, AID435008, AID463079, AID485270, AID492963, AID492964, AID492965, AID493232, AID504699, AID504701]
[3] = molecular target: T1, Orexin/Hypocretin receptor type 1; test: as §1, with “Homogeneous Time Resolved Fluorescence (HTRF)-based” for “Fluorescence-based”
[4] = test system: CHO-K1; test: as §2, with “Homogeneous time resolved fluorescence (HTRF)-based” for “Fluorescence-based”, “cell-based” for “cell-based high throughput”, “CHO-K1” for “CHO”; conditions: Cricetulus griseus;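 note: potency for inhibition of ATP-stimulated IP1 production as antagonists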
[5] = molecular target: T2, Tyrosine-protein phosphatase non-receptor type 22 (Homo sapiens, UniProt Q9Y2R2)
T2 sequence (Q9Y2R2 whole entry): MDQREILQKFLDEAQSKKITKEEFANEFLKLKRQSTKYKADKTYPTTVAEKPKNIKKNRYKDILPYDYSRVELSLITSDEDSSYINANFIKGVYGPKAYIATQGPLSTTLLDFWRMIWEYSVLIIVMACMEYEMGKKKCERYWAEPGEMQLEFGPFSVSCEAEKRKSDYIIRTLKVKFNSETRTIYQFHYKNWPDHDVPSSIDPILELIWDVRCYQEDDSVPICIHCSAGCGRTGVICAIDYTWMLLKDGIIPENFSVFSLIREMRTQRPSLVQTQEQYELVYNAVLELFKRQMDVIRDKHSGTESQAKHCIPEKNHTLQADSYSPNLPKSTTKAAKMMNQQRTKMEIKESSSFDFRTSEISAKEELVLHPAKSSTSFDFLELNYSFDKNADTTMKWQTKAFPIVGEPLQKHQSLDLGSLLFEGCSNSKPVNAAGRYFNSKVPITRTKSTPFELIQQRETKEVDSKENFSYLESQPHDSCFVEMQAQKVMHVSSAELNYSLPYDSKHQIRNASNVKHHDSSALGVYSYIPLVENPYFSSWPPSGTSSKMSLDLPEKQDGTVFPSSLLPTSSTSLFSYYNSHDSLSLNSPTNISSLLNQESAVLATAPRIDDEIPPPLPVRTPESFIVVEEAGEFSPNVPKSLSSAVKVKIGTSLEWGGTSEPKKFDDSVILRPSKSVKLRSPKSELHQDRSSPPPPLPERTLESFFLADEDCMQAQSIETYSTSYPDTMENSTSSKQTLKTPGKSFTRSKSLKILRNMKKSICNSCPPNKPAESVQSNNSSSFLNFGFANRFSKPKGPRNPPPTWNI

[6] = molecular target: T3, Tyrosine-protein phosphatase non-receptor type 7 (Homo sapiens, UniProt P35236)
T3 sequence (P35236 whole entry): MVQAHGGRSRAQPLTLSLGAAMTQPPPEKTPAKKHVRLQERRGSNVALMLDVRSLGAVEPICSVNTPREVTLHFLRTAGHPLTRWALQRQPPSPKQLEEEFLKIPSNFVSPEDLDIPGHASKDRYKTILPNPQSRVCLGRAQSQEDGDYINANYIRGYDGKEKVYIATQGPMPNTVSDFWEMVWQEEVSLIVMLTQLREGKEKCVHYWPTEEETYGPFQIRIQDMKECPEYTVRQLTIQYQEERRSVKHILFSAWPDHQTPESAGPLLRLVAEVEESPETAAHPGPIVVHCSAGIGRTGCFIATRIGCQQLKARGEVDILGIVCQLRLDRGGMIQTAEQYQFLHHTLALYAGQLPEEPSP

[7] = molecular target: T2, Tyrosine-protein phosphatase non-receptor type 22; remark: listed apart in the source
[8] = molecular target: T3, Tyrosine-protein phosphatase non-receptor type 7; test: inhibition of hematopoietic tyrosine phosphatase HePTP – biochemical, set 2, SAR follow-up (AID 449736)
[9] = molecular target: Sphingosine 1-phosphate receptor 1 (Homo sapiens, UniProt P21453); test: Fluorescence-based counterscreen assay for S1P4 agonists: Cell-based dose response high throughput screening assay to identify agonists of the Sphingosine 1-Phosphate Receptor 1 (S1P1). [Related pubchem assays (depositor defined):AID1509, AID1523, AID1801, AID463107, AID463118, AID463119, AID463122, AID463123, AID463129, AID463225, AID504400, AID504460]
[10] = molecular target: T4, Sphingosine 1-phosphate receptor 4 (Homo sapiens, UniProt O95977); test: Fluorescence dose response cell-based high throughput screening assay for agonists of the Sphingosine 1-Phosphate Receptor 4 (S1P4). [Related pubchem assays: 1509 (Primary screen.), 1523 (Confirmation screen in triplicates.)]
T4 sequence (O95977 whole entry): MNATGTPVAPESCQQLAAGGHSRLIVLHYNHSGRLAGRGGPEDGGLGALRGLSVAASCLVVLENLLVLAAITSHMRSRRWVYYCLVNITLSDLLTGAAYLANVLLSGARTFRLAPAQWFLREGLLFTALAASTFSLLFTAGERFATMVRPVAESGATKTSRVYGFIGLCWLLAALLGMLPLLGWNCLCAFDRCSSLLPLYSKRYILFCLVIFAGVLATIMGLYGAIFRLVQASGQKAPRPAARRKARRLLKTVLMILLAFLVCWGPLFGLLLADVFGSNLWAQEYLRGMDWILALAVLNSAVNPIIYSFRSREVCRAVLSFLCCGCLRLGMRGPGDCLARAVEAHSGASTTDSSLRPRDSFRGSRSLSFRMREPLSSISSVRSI

T1 sequence (O43613 whole entry): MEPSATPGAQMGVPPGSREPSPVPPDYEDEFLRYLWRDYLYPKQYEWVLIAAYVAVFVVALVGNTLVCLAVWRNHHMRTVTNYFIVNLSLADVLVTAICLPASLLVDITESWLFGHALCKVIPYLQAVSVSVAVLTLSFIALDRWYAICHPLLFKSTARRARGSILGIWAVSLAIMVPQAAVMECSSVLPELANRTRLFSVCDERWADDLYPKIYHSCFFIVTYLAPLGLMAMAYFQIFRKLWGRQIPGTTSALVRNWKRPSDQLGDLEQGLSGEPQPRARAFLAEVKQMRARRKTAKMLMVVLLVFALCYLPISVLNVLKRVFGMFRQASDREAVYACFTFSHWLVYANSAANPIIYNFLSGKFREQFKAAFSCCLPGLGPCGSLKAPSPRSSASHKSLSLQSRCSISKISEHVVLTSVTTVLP
Sequence of Sphingosine 1-phosphate receptor 1 (P21453 whole entry): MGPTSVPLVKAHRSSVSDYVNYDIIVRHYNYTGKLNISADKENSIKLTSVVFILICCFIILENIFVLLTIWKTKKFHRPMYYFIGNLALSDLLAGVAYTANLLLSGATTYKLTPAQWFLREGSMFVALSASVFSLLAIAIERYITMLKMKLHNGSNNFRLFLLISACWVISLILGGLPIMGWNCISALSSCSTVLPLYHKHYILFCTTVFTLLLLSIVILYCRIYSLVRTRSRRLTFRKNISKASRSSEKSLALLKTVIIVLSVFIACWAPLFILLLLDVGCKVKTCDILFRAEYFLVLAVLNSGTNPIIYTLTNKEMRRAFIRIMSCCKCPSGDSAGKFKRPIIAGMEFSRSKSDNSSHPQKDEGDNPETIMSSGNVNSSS

Structure (SMILES): CC(=O)NC(N=C(S)Nc1ccc(N=Nc2ccccc2)cc1)C(Cl)(Cl)Cl (stereo not given)
IC50 [1]: 6.68 µM (active)
IC50 [2]: > 5.53 µM (active)
IC50 [3]: 42.3 µM (inactive)
IC50 [4]: > 66.2 µM (inactive)

IC50 [5]: > 79.4 µM (inactive)
IC50 [6]: > 79.4 µM (inactive)
IC50 [7]: > 79.4 µM (inactive)
Structure (SMILES): CC1=NN(C(=O)c2ccc(Cn3ccc([N+](=O)[O-])n3)cc2)C(O)(C(F)(F)F)C1 (stereo not given)

IC50 [8]: 50.5 µM (active)
Structure (SMILES): Cc1ccc(-n2c(N)c(C(=O)Nc3ccccc3F)sc2=S)cc1C

EC50 [9]: 10.6 µM (inactive)
EC50 [10]: 3.72 µM (active)
Structure (SMILES): Cc1ccc2nc3c(cc(C#N)c(=O)n3-c3nccs3)c(=O)n2c1
